The results in this text go back to patent US20230312587A1, “PTERIDINONE COMPOUNDS AND USES THEREOF” (Vertex Pharmaceutical Incorporated, priority 2018, published 2023).

Where two headings read alike, the source gives them in different places.

What all share (format): cell-based
One assay concerns HepG2 XBP1(u)-Luc cells. As to the kind of experiment: HepG2 XBP1 reporter assay. As to conditions: 6 h. The method, boiled down:
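Reporter cells are HepG2 stably carrying unspliced XBP1 fused to firefly luciferase, which becomes in-frame after IRE1alpha-mediated splicing. SteadyGlo luminescence was normalized to DMSO-treated cells for IC50 calculation.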
Background: In a reporter assay the amount or activity of a reporter protein is the signal.

The subject of the next assay is Colo-205 cells. As to the kind of experiment: Calcium flux assay (FLIPR Calcium 5). As to conditions: FLIPR Calcium 5, measured over 36 minutes. As to the method:
Compounds described herein induced ER stress by causing intracellular calcium flux. Calcium flux was measured in Colo-205 cells using the FLTPR® Calcium 5 Assay Kit according to manufacter's protocol (Molecular Devices, Cat. #R8186) on a FLIPR3 system (Molecular Devices). Calcium flux is measured over 36 minutes. The Colo-205 calcium flux assay data are summarized in Table 47: A<0.6 μM; 0.6 μM≤B<2.0 μM; 2.0 μM≤C<10.0 μM; D≥10.0 μM.
In general terms: Calcium flux is commonly read through the fluorescence of an indicator in the cells.

The next assay has as its system HepG2 parental. As to the kind of experiment: In vitro cell viability (CellTiter-Glo), HepG2 parental. As to conditions: 96 hours, read-out: HepG2 viability. The procedure: HEK293 cells containing empty pCLPCx vector (HEK293 empty), HEK293 cells stably over-expression WFS1 (HEK293 WFS1), HepG2, and HepG2 cells where WFS1 was depleted via CRISPR/Cas9 (HepG2 WFS1 KO) cells were plated into 96-well black plates (Corning, product #3904) in 100 microliters of complete DMEM cell culture media [DMEM (Life Technologies, product #11960-051) media supplemented with 10% FBS (Hyclone, catalog #SH30071.03), antimycotic/antibiotic (Life Technologies, product #15240-062), and Glutamax (Life Technologies, product #35050-061)] at 1,000 (HEK293) or 5,000 (HepG2) cells per well. Cells were allowed to attach and grow overnight, after which compounds are added at various concentrations. Cell viability was assessed 96 hrs after compound addition with CellTiter-Glo reagent (Promega, catalog #G7570) according to manufacturer's protocol and measurement on a Pherastar luminescence plate reader (BMG Labtech).
To determine the effect of WFS1 depletion on compound mediated inhibition of cell viability, parental HepG2 cells and HepG2 cells where WFS1 was deleted by CRISPR/Cas9 were exposed to increasing concentrations of either Compound 136 or Compound 253 for 96 hours after which time viability was determined using Cell Titer Glo reagent (Promega). […] The IC50s for the viability of both the HepG2 parental and WFS1 knockout cells are summarized in Table 47: A<0.5 μM; 0.5 μM≤<2.0 μM; 2.0 μM≤C<10.0 μM; D≥[…].
For orientation: Cellular ATP, detected with luciferase, serves as a proxy for viable cell number.

Assay [1] has as its system Hek293 WFS1 over-expressor. As to the kind of experiment: In vitro cell viability (CellTiter-Glo), Hek293 WFS1 over-expressor. As to conditions: read-out: Hek293 WFS1 viability. The method, boiled down: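 HEK293 cells stably overexpressing WFS1 via retroviral transduction (puromycin-selected), with empty-vector cells as counterpart, plated 1,000/well. Compounds added at various concentrations after overnight attachment; viability by CellTiter-Glo luminescence after 96 h, reported as IC50.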

Where [2] appears, read: Homo sapiens, HEK293, Hek293 WFS1 over-expressing cells.

As usually defined, the EC50 is the concentration needed to bring the measured effect to its halfway point. As for `Cc1nc(NCc2cnn([C@@H]3CCN(c4ccc(F)cc4)C3)c2)nc2c1NC(=O)[C@H](C)N2C` [Compound 170, (7S)-2-(((1-((R)-1-(4-fluorophenyl)pyrrolidin-3-yl)-1H-pyrazol-4-yl)methyl)amino)-4,7,8-trimethyl-7,8-dihydropteridin-6(5H)-one], the results for the IC50 (in the assay on HepG2 XBP1(u)-Luc cells (Homo sapiens); in the assay on HepG2 parental (Homo sapiens); in assay [1] (setting [2])) were less than 600 nM, less than 500 nM and less than 60 nM, respectively. In addition, the EC50 with Colo-205 cells (Homo sapiens, COLO 205, 0.6 h) was less than 600 nM.
Regarding `CCOc1ccc(CCn2cc(CNc3ncc4c(n3)N(C)[C@@H](C)C(=O)N4)cn2)cc1` [Compound 121, (7S)-2-(((1-(4-ethoxyphenethyl)-1H-pyrazol-4-yl)methyl)amino)-7,8-dimethyl-7,8-dihydropteridin-6(5H)-one], the IC50 in the assay with HepG2 XBP1(u)-Luc cells (Homo sapiens) is 2000 to 10000 nM; with HepG2 parental (Homo sapiens) it was not below 10000 nM; in assay [1] (setting [2]) it was 600 to 3000 nM. Further, in the assay with Colo-205 cells (Homo sapiens, COLO 205, 0.6 h), the EC50 lay within 600 to 2000 nM.
For `Cc1nc(NCc2cnn(CCc3ccc(F)cc3)c2)nc2c1N(C)C(=O)[C@H](C)N2C` [Compound 8, (7S)-2-(((1-(4-fluorophenethyl)-1H-pyrazol-4-yl)methyl)amino)-4,5,7,8-tetramethyl-7,8-dihydropteridin-6(5H)-one] the same measures were 2000 to 10000 nM, 2000 to 10000 nM, not below 3000 nM and 2000 to 10000 nM.
The matching figures for `Cc1nc(N[C@H]2C[C@@H](Oc3cc(F)c(F)c(F)c3)C2)nc2c1NC(=O)[C@H](C)N2C` [Compound 247, (7S)-4,7,8-trimethyl-2-((cis-3-(3,4,5-trifluorophenoxy)cyclobutyl)amino)-7,8-dihydropteridin-6(5H)-one]: not below 10000 nM, 2000 to 10000 nM, not below 3000 nM and 2000 to 10000 nM.
For `Cc1nc(N[C@H]2C[C@H](Oc3ccc(F)nc3)C2)nc2c1NC(=O)[C@H](C)N2C` [Compound 357, (7S)-2-((trans-3-((6-fluoropyridin-3-yl)oxy)cyclobutyl)amino)-4,7,8-trimethyl-7,8-dihydropteridin-6(5H)-one] the same measures were 2000 to 10000 nM, 2000 to 10000 nM, 60 to 600 nM and 600 to 2000 nM.
As for `Cc1nc(NCc2cnn(Cc3ccc(Cl)nc3)c2)nc2c1NC(=O)[C@H](C(C)C)N2C` [Compound 409, (7S)-2-(((1-((6-chloropyridin-3-yl)methyl)-1H-pyrazol-4-yl)methyl)amino)-7-isopropyl-4,8-dimethyl-7,8-dihydropteridin-6(5H)-one], the IC50 with HepG2 XBP1(u)-Luc cells (Homo sapiens) was less than 600 nM; in the assay on HepG2 parental (Homo sapiens) it was less than 500 nM; in assay [1] (setting [2]) it was less than 60 nM. In addition, the 50% effective concentration (EC50) in the assay on Colo-205 cells (Homo sapiens, COLO 205, 0.6 h) is 600 to 2000 nM.
The matching figures for `Cc1nc(N[C@@H]2CC[C@@H](n3ccc(C(F)(F)F)n3)C2)nc2c1NC(=O)[C@H](C)N2C` (single isomer, unassigned) [Compound 311]: less than 600 nM, not below 10000 nM, less than 60 nM and less than 600 nM.
For the compound `Cc1nc(NCc2cnn(Cc3ccc(F)nc3)c2)nc2c1NC(=O)[C@H](C1CC1)N2C` [Compound 421, (7S)-7-cyclopropyl-2-(((1-((6-fluoropyridin-3-yl)methyl)-1H-pyrazol-4-yl)methyl)amino)-4,8-dimethyl-7,8-dihydropteridin-6(511)-one], the IC50 was less than 600 nM with HepG2 XBP1(u)-Luc cells, 500 to 2000 nM with HepG2 parental and 60 to 600 nM in assay [1] (Hek293 WFS1 over-expressing cells). Besides, the EC50 with Colo-205 cells lay within 600 to 2000 nM.
In the case of `Cc1cc(F)ncc1Cn1cc(CNc2nc(C)c3c(n2)N(C)[C@@H](C(C)C)C(=O)N3)cn1` [Compound 423, (7S)-2-(((1-((6-fluoro-4-methylpyridin-3-yl)methyl)-1H-pyrazol-4-yl)methyl)amino)-7-isopropyl-4,8-dimethyl-7,8-dihydropteridin-6(5H)-one], the results for the IC50 (with HepG2 XBP1(u)-Luc cells (Homo sapiens); in the assay with HepG2 parental (Homo sapiens); in assay [1] (setting [2])) were less than 600 nM, less than 500 nM and less than 60 nM, respectively. For the same compound, in the assay on Colo-205 cells (Homo sapiens, COLO 205, 0.6 h), the EC50 lay in the range of 600 to 2000 nM.
As for `Cc1nc(N[C@H]2CC[C@H](n3ccc(C(F)(F)F)n3)C2)nc2c1NC(=O)[C@H](C)N2C` (single isomer, unassigned) [Compound 310], the IC50 in the assay on HepG2 XBP1(u)-Luc cells (Homo sapiens) was less than 600 nM; in the assay with HepG2 parental (Homo sapiens) it was not below 10000 nM; in assay [1] (setting [2]), 60 to 600 nM. For the same compound, the EC50 with Colo-205 cells (Homo sapiens, COLO 205, 0.6 h) was in the range of 2000 to 10000 nM.
On to `Cc1ncc(Cn2cc(CNc3nc(C)c4c(n3)N(C)[C@@H](C)C(=O)N4)cn2)cn1` [Compound 163, (7S)-4,7,8-trimethyl-2-(((1-((2-methylpyrimidin-5-yl)methyl)-1H-pyrazol-4-yl)methyl)amino)-7,8-dihydropteridin-6(5H)-one], for which the IC50 in the assay with HepG2 XBP1(u)-Luc cells (Homo sapiens) is not below 10000 nM; in the assay on HepG2 parental (Homo sapiens), not below 10000 nM; in assay [1] (setting [2]), not below 3000 nM. Besides, the EC50 with Colo-205 cells (Homo sapiens, COLO 205, 0.6 h) lay within 2000 to 10000 nM.
With `Cc1nc(NCc2cnn(Cc3ccc(F)nc3)c2)nc2c1NC(=O)[C@H](C(C)C)N2C` [Compound 384, (7S)-2-(((1-((6-fluoropyridin-3-yl)methyl)-1H-pyrazol-4-yl)methyl)amino)-7-isopropyl-4,8-dimethyl-7,8-dihydropteridin-6(5H)-one], the IC50 in the assay with HepG2 XBP1(u)-Luc cells (Homo sapiens) was 600 to 2000 nM; in the assay on HepG2 parental (Homo sapiens), less than 500 nM; in assay [1] (setting [2]), less than 60 nM. For the same compound, the concentration for a half-maximal effect (EC50) with Colo-205 cells (Homo sapiens, COLO 205, 0.6 h) is 600 to 2000 nM.
For `Cc1nc(N[C@H]2C[C@@H](Sc3ccc(F)cc3)C2)nc2c1N(C)C(=O)[C@H](C)N2C` [Compound 305, (7S)-2-((cis-3-((4-fluorophenyl)thio)cyclobutyl)amino)-4,5,7,8-tetramethyl-7,8-dihydropteridin-6(5H)-one], the IC50 in the assay on HepG2 XBP1(u)-Luc cells (Homo sapiens) is 2000 to 10000 nM; in the assay on HepG2 parental (Homo sapiens) it was not below 10000 nM; in assay [1] (setting [2]), 60 to 600 nM. The EC50 in the assay with Colo-205 cells (Homo sapiens, COLO 205, 0.6 h) lay in the range of 600 to 2000 nM.
The matching figures for `Cc1nc(N(C)Cc2cnn(Cc3ccc(C(F)(F)F)nc3)c2)nc2c1NC(=O)[C@H](C)N2C` [Compound 403, (7S)-4,7,8-trimethyl-2-(methyl((1-((6-(trifluoromethyl)pyridin-3-yl)methyl)-1H-pyrazol-4-yl)methyl)amino)-7,8-dihydropteridin-6(5H)-one]: not below 10000 nM, not below 10000 nM, not below 3000 nM and not below 10000 nM.
For `CN1C(=O)C(C)(C)N(C)c2nc(NCc3cnn(Cc4cccnc4C(F)(F)F)c3)ncc21` [Compound 237, 5,7,7,8-Tetramethyl-2-(((1-((2-(trifluoromethyl)pyridin-3-yl)methyl)-1H-pyrazol-4-yl)methyl)amino)-7,8-dihydropteridin-6(5H)-one] the same measures were 600 to 2000 nM, not below 10000 nM, 60 to 600 nM and 600 to 2000 nM.
The matching figures for `Cc1nc(NCc2cnn(Cc3ccc(C(F)(F)F)nc3)c2)nc2c1NC(=O)C1(CCC1)N2C` [Compound 398, 4′,8′-dimethyl-2′-(((1-((6-(trifluoromethyl)pyridin-3-yl)methyl)-1H-pyrazol-4-yl)methyl)amino)-5′,8′-dihydro-6′H-spiro[cyclobutane-1,7′-pteridin]-6′-one]: 600 to 2000 nM, 500 to 2000 nM, less than 60 nM and 600 to 2000 nM.
For the compound `Cc1nc(NCc2cnn(Cc3ccc(C(F)(F)F)nc3)c2)nc2c1NC(=O)[C@H](C(C)C)N2C` [Compound 383, (7S)-7-isopropyl-4,8-dimethyl-2-(((1-((6-(trifluoromethyl)pyridin-3-yl)methyl)-1H-pyrazol-4-yl)methyl)amino)-7,8-dihydropteridin-6(5H)-one], the IC50 is 600 to 2000 nM in the assay with HepG2 XBP1(u)-Luc cells (Homo sapiens), less than 500 nM in the assay on HepG2 parental (Homo sapiens) and less than 60 nM in assay [1] (setting [2]). Further, in the assay with Colo-205 cells (Homo sapiens, COLO 205, 0.6 h), the EC50 fell in the range of 600 to 2000 nM.
